This note sets out measurements from US8106055B2, “Substituted amide compounds” (Gruenenthal GmbH, priority 2007, dated 2012).

In the assay the target is T1, serotonin (5-HT) reuptake (Rattus norvegicus, UniProt P31652).
T1 construct: synaptosomes are freshly isolated from areas of the rat brain; from tissue; host or cells: rat brain synaptosomes (P2 fraction)
T1 sequence (P31652 whole entry): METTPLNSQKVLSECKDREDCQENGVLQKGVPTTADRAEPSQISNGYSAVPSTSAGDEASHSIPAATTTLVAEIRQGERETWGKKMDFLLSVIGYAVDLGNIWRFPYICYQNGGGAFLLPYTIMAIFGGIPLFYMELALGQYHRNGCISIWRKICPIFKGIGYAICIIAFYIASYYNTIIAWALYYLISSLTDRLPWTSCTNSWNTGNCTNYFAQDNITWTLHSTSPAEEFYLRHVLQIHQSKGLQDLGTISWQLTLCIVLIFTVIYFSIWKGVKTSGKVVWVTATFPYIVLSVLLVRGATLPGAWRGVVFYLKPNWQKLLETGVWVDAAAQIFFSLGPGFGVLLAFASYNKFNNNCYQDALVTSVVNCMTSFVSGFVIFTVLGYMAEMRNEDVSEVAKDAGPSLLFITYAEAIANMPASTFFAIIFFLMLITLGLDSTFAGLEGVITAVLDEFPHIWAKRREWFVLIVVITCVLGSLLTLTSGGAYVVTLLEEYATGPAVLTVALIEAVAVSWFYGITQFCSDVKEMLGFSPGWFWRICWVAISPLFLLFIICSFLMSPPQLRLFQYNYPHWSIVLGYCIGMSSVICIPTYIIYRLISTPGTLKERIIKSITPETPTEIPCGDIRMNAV
The experiment in a line: Inhibition of serotonin (5HT) reuptake in synaptosomes from rat brain. The conditions noted are these: test concentration of 10 μM; read-out: 5-HT (inhibition of reuptake of serotonin, % inhibition). In kind it is biochemical. In a few lines: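 Compounds screened at 10 μM and reported as percent inhibition of serotonin uptake. Uptake measured in a freshly prepared P2 synaptosomal fraction from rat brain.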
Regarding `COc1cc(C)c(S(=O)(=O)N2CCC(CCOCC(=O)NC3CCC(C(c4ccc(F)cc4)N(C)C)CC3)CC2)c(C)c1C` (stereo not shown) [Example 178, N-(4-((dimethylamino)(4-fluorophenyl)methyl)cyclohexyl)-2-(2-(1-(4-methoxy-2,3,6-trimethylphenylsulfonyl)piperidin-4-yl)ethoxy)acetamide], the inhibition at 10 µM came to 94%.

With `Cc1cc(C)c(S(=O)(=O)N2CCC(OCC(=O)NCC3CCC(C(c4cccc(F)c4)N(C)C)CC3)C2)c(C)c1` (stereo not shown) [Example 141, N-((4-((dimethylamino)(3-fluorophenyl)methyl)cyclohexyl)methyl)-2-(1-(mesitylsulfonyl)pyrrolidin-3-yloxy)acetamide], the inhibition at 10 µM was determined as 80%.

Take `COc1cc(C)c(S(=O)(=O)N2CCCC(OCC(=O)NCC3CCC(C(c4ccccc4)N(C)C)CC3)C2)c(C)c1C` (stereo not shown) [Example 29, N-((4-((dimethylamino)(phenyl)methyl)cyclohexyl)methyl)-2-(1-(4-methoxy-2,3,6-trimethylphenylsulfonyl)piperidin-3-yloxy)acetamide]: the inhibition at 10 µM turned out to be 93%.

Turning to `COc1ccc(S(=O)(=O)N2CCCCC2COCC(=O)NCCC2CCC(C(c3cccc(F)c3)N(C)C)CC2)cc1OC` (stereo not shown) [Example 191, 2-((1-(3,4-dimethoxyphenylsulfonyl)piperidin-2-yl)methoxy)-N-(2-(4-((dimethylamino)(3-fluorophenyl)methyl)cyclohexyl)ethyl)acetamide], the inhibition at 10 µM is 89%.

For the molecule `CN(C)C(c1cccs1)C1CCC(NC(=O)COCCN(C)S(=O)(=O)c2cccc(C(F)(F)F)c2)CC1` (stereo not shown) [Example 152, N-(4-((dimethylamino)(thiophen-2-yl)methyl)cyclohexyl)-2-(2-(N-methyl-3-(trifluoromethyl)phenylsulfonamido)ethoxy)acetamide], the inhibition at 10 µM came out at 87%.

As for `COc1cc(C)c(S(=O)(=O)N2CCC(OCC(=O)NCCC3CCC(C(c4cccs4)N(C)C)CC3)CC2)c(C)c1C` (stereo not shown) [Example 177, N-(2-(4-((dimethylamino)(thiophen-2-yl)methyl)cyclohexyl)ethyl)-2-(1-(4-methoxy-2,3,6-trimethylphenylsulfonyl)piperidin-4-yloxy)acetamide], the inhibition at 10 µM amounted to 93%.

As to `COc1ccc(S(=O)(=O)N2CCC(OCC(=O)NCC3CCC(C(c4ccccc4)N(C)C)CC3)C2)cc1OC` (stereo not shown) [Example 22, 2-(1-(3,4-dimethoxyphenylsulfonyl)pyrrolidin-3-yloxy)-N-((4-((dimethylamino)(phenyl)methyl)cyclohexyl)methyl)acetamide], the inhibition at 10 µM was 87%.

Consider `COc1ccc(S(=O)(=O)N(C)CCOCC(=O)NCC2CCC(C(c3ccccc3)N(C)C)CC2)cc1OC` (stereo not shown) [Example 169, 2-(2-(3,4-dimethoxy-N-methylphenylsulfonamido)ethoxy)-N-((4-((dimethylamino)(phenyl)methyl)cyclohexyl)methyl)acetamide], for which the inhibition at 10 µM stood at 94%.

Consider `COc1ccc(S(=O)(=O)N2CCCC2COCC(=O)NC2CCC(C(c3ccccc3)N(C)C)CC2)cc1` (stereo not shown) [Example 182, N-(4-((dimethylamino)(phenyl)methyl)cyclohexyl)-2-((1-(4-methoxyphenylsulfonyl)pyrrolidin-2-yl)methoxy)acetamide], for which the inhibition at 10 µM stood at 85%.

Turning to `CN(C)C(c1cccs1)C1CCC(CCNC(=O)COC2CCN(S(=O)(=O)c3ccc(F)cc3)C2)CC1` (stereo not shown) [Example 138, N-(2-(4-((dimethylamino)(thiophen-2-yl)methyl)cyclohexyl)ethyl)-2-(1-(4-fluorophenylsulfonyl)pyrrolidin-3-yloxy)acetamide], the inhibition at 10 µM worked out at 98%.

On to `CN(C)C(c1cccc(F)c1)C1CCC(CNC(=O)COCCN(C)S(=O)(=O)c2c(Cl)cc(Cl)cc2Cl)CC1` (stereo not shown) [Example 188, N-((4-((dimethylamino)(3-fluorophenyl)methyl)cyclohexyl)methyl)-2-(2-(2,4,6-trichloro-N-methylphenylsulfonamido)ethoxy)acetamide], for which the inhibition at 10 µM turned out to be 98%.

Regarding `COc1ccc(S(=O)(=O)N2CCC(OCC(=O)NCC3CCC(C(c4cccc(F)c4)N(C)C)CC3)C2)cc1OC` (stereo not shown) [Example 184, 2-(1-(3,4-dimethoxyphenylsulfonyl)pyrrolidin-3-yloxy)-N-((4-((dimethylamino)(3-fluorophenyl)methyl)cyclohexyl)methyl)acetamide], the inhibition at 10 µM came out at 88%.

In the case of `COc1cc(C)c(S(=O)(=O)N(C)CCOCC(=O)NCC2CCC(C(c3ccccc3)N(C)C)CC2)c(C)c1` (stereo not shown) [Example 137, N-((4-((dimethylamino)(phenyl)methyl)cyclohexyl)methyl)-2-(2-(4-methoxy-N,2,6-trimethylphenylsulfonamido)ethoxy)acetamide], the inhibition at 10 µM came out at 89%.

For the molecule `CN(C)C(c1cccc(F)c1)C1CCC(CNC(=O)COC2CCCCC2N(C)S(=O)(=O)c2ccc(Cl)c(Cl)c2)CC1` (stereo not shown) [Example 164, 2-(2-(3,4-dichloro-N-methylphenylsulfonamido)cyclohexyloxy)-N-((4-((dimethylamino)(3-fluorophenyl)methyl)cyclohexyl)methyl)acetamide], the inhibition at 10 µM came to 90%.

In the case of `CN(C)C(c1cccc(F)c1)C1CCC(CNC(=O)COC2CCN(S(=O)(=O)c3cccc(C(F)(F)F)c3)C2)CC1` (stereo not shown) [Example 170, N-((4-((dimethylamino)(3-fluorophenyl)methyl)cyclohexyl)methyl)-2-(1-(3-(trifluoromethyl)phenylsulfonyl)pyrrolidin-3-yloxy)acetamide], the inhibition at 10 µM was found to be 89%.

For `Cc1cc(C)c(S(=O)(=O)N2CCC(OCC(=O)NC3CCC(C(c4cccs4)N(C)C)CC3)C2)c(C)c1` (stereo not shown) [Example 12, N-(4-((dimethylamino)(thiophen-2-yl)methyl)cyclohexyl)-2-(1-(mesitylsulfonyl)pyrrolidin-3-yloxy)acetamide], the inhibition at 10 µM was 79%.

`CN(C)C(c1cccc(F)c1)C1CCC(CNC(=O)COCCN(C)S(=O)(=O)c2ccc(Cl)cc2)CC1` (stereo not shown) [Example 158, 2-(2-(4-chloro-N-methylphenylsulfonamido)ethoxy)-N-((4-((dimethylamino)(3-fluorophenyl)methyl)cyclohexyl)methyl)acetamide]: the inhibition at 10 µM came to 91%.

In the case of `CN(C)C(c1cccs1)C1CCC(NC(=O)COCCN(Cc2ccccc2)S(=O)(=O)c2ccccc2)CC1` (stereo not shown) [Example 161, 2-(2-(N-benzylphenylsulfonamido)ethoxy)-N-(4-((dimethylamino)(thiophen-2-yl)methyl)cyclohexyl)acetamide], the inhibition at 10 µM came out at 94%.

For `CN(C)C(c1ccccc1)C1CCC(CNC(=O)COCCN(Cc2ccccc2)S(=O)(=O)c2ccccc2)CC1` (stereo not shown) [Example 15, 2-(2-(N-benzylphenylsulfonamido)ethoxy)-N-((4-((dimethylamino)(phenyl)methyl)cyclohexyl)methyl)acetamide], the inhibition at 10 µM is 99%.

As to `Cc1ccc(S(=O)(=O)N2CCC(OCC(=O)NCC3CCC(C(c4cccc(F)c4)N(C)C)CC3)C2)cc1` (stereo not shown) [Example 185, N-((4-((dimethylamino)(3-fluorophenyl)methyl)cyclohexyl)methyl)-2-(1-tosylpyrrolidin-3-yloxy)acetamide], the inhibition at 10 µM is 102%.

As for `CN(C)C(c1ccccc1)C1CCC(CNC(=O)COCC2CCCCN2S(=O)(=O)c2ccc(Cl)c(Cl)c2)CC1` (stereo not shown) [Example 17, 2-((1-(3,4-dichlorophenylsulfonyl)piperidin-2-yl)methoxy)-N-((4-((dimethylamino)(phenyl)methyl)cyclohexyl)methyl)acetamide], the inhibition at 10 µM stood at 93%.

For the molecule `CN(C)C(c1cccs1)C1CCC(CNC(=O)COC2CCN(S(=O)(=O)c3cccc(C(F)(F)F)c3)C2)CC1` (stereo not shown) [Example 25, N-((4-((dimethylamino)(thiophen-2-yl)methyl)cyclohexyl)methyl)-2-(1-(3-(trifluoromethyl)phenylsulfonyl)pyrrolidin-3-yloxy)acetamide], the inhibition at 10 µM was found to be 82%.

As for `COc1ccc(S(=O)(=O)N2CCCC2COCC(=O)NC2CCC(C(c3cccs3)N(C)C)CC2)cc1` (stereo not shown) [Example 162, N-(4-((dimethylamino)(thiophen-2-yl)methyl)cyclohexyl)-2-((1-(4-methoxyphenylsulfonyl)pyrrolidin-2-yl)methoxy)acetamide], the inhibition at 10 µM is 81%.

`COc1cc(C)c(S(=O)(=O)N(C)CCOCC(=O)NCCC2CCC(C(c3cccc(F)c3)N(C)C)CC2)c(C)c1` (stereo not shown) [Example 197, N-(2-(4-((dimethylamino)(3-fluorophenyl)methyl)cyclohexyl)ethyl)-2-(2-(4-methoxy-N,2,6-trimethylphenylsulfonamido)ethoxy)acetamide]: the inhibition at 10 µM was 85%.

As for `CN(C)C(c1ccccc1)C1CCC(CNC(=O)COCCN(C)S(=O)(=O)c2c(Cl)cc(Cl)cc2Cl)CC1` (stereo not shown) [Example 14, N-((4-((dimethylamino)(phenyl)methyl)cyclohexyl)methyl)-2-(2-(2,4,6-trichloro-N-methylphenylsulfonamido)ethoxy)acetamide], the inhibition at 10 µM was determined as 99%.

For `CN(C)C(c1cccc(F)c1)C1CCC(CCNC(=O)COCCN(C)S(=O)(=O)c2c(Cl)cc(Cl)cc2Cl)CC1` (stereo not shown) [Example 174, N-(2-(4-((dimethylamino)(3-fluorophenyl)methyl)cyclohexyl)ethyl)-2-(2-(2,4,6-trichloro-N-methylphenylsulfonamido)ethoxy)acetamide], the inhibition at 10 µM came to 97%.

Consider `CN(C)C(c1cccs1)C1CCC(CCNC(=O)COCCN(C)S(=O)(=O)c2cccc(C(F)(F)F)c2)CC1` (stereo not shown) [Example 32, N-(2-(4-((dimethylamino)(thiophen-2-yl)methyl)cyclohexyl)ethyl)-2-(2-(N-methyl-3-(trifluoromethyl)phenylsulfonamido)ethoxy)acetamide], for which the inhibition at 10 µM is 97%.

For `COc1ccc(S(=O)(=O)N2CCCCC2COCC(=O)NCC2CCC(C(c3cccc(F)c3)N(C)C)CC2)c(OC)c1` (stereo not shown) [Example 151, 2-((1-(2,4-dimethoxyphenylsulfonyl)piperidin-2-yl)methoxy)-N-((4-((dimethylamino)(3-fluorophenyl)methyl)cyclohexyl)methyl)acetamide], the inhibition at 10 µM is 87%.
